# From publication PMC10661964 (Current Drug Metabolism, 2023)
# Key:
# [1] = rats, assuming oral bioavailability of 90% and fu 62.1%
# [2] = humans, dogs, and rats, oral administration; cited from earlier work
# [3] = human, estimation accounting for GFR, fu (57.6%), and AUC
# [4] = Protocol: One aliquot of a pooled urine sample taken at 0.25 h post-dose was analyzed immediately using HPLC-LSC. Further aliquots were analyzed after storage for 24 h at room temperature. […] After incubation for 22.5 h at 37°C with shaking, incubations were terminated by the addition of acetonitrile, then extracted (three times with 2 mL acetonitrile for 30 min) and centrifuged (1726 g, 3 min). The combined supernatant was analyzed directly using HPLC-LSC.
structure (smiles),measurement,setting,value
"CC1CS(=O)(=O)CCN1/N=C/c1ccc([N+](=O)[O-])o1 (stereo not drawn) [Nifurtimox, (E)-N-(3-methyl-1,1-dioxo-1,4-thiazinan-4-yl)-1-(5-nitrofuran-2-yl) methanimine, reference compound]",theoretical excretion based on glomerular filtration rate,[1],23 % of the dose
same,unlabeled nifurtimox excreted in urine,[2],no more than 0.5 % of the administered dose
same,dose expected to be excreted unchanged in urine,[3],approximately 10%
same,stability in aqueous control without feces,"[4]; 8.8 µM, 37°C, 22.5 h, anaerobic, data not shown",no degradation
same,stability in rat feces,"[4]; 8.8 µM, aqueous suspension of fresh rat feces, 37°C, 22.5 h, anaerobic",unstable in rat feces
same,stability in rat urine,[4]; pooled 0.25 h post-dose urine reanalyzed after storage at room temperature for 24 h,undetectable
